In PubChem BioAssay (NCI):
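Interpolation was linear, between the two tested concentrations surrounding the appropriate level; five concentrations were tested over 48 hours in 96-well plates. TGI: total growth inhibition.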

Tests used:
Assay in all cases: NCI-60 cell line screen, 48 h
[1] = tested on: CCRF-CEM leukemia
[2] = tested on: SF-295 CNS
[3] = tested on: K-562 leukemia
[4] = tested on: MCF7 breast
[5] = tested on: M19-MEL melanoma
[6] = tested on: HOP-92 NSCLC
[7] = tested on: HCT-116 colon
[8] = tested on: KM20L2 colon
[9] = tested on: HS 578T breast
[10] = tested on: A549 NSCLC
[11] = tested on: SK-MEL-5 melanoma
[12] = tested on: HCT-15 colon
[13] = tested on: SR leukemia
[14] = tested on: SF-539 CNS
[15] = tested on: DU-145 prostate
[16] = tested on: SNB-78 CNS
[17] = tested on: DLD-1 colon
[18] = tested on: OVCAR-3 ovarian
[19] = tested on: NCI-H226 lung
[20] = tested on: SNB-75 CNS
[21] = tested on: IGROV1 ovarian
[22] = tested on: TK-10 renal
[23] = tested on: MALME-3M melanoma
[24] = tested on: HOP-62 NSCLC
[25] = tested on: SK-OV-3 ovarian
[26] = tested on: LXFL 529 NSCLC
[27] = tested on: MDA-N
[28] = tested on: MOLT-4 leukemia
[29] = tested on: LOX IMVI melanoma
[30] = tested on: OVCAR-5 ovarian
[31] = tested on: UACC-62 melanoma
[32] = tested on: U251 CNS
[33] = tested on: SW-620 colon
[34] = tested on: OVCAR-8 ovarian
[35] = tested on: SN12C renal
[36] = tested on: DMS 273 small cell lung
[37] = tested on: A498 renal
[38] = tested on: NCI-H522 lung
[39] = tested on: UACC-257 melanoma
[40] = tested on: KM12 colon
[41] = tested on: BT-549 breast
[42] = tested on: HT29 colon
[43] = tested on: RXF 393 renal
[44] = tested on: OVCAR-4 ovarian
[45] = tested on: MDA-MB-435
[46] = tested on: SF-268 CNS
[47] = tested on: HCC-2998 colon
[48] = tested on: PC-3 prostate
[49] = tested on: SK-MEL-28 melanoma
[50] = tested on: COLO 205 colon
[51] = tested on: NCI-H23 lung
[52] = tested on: NCI/ADR-RES ovarian
[53] = tested on: 786-0 renal
[54] = tested on: MDA-MB-231 breast
[55] = tested on: EKVX NSCLC
[56] = tested on: RPMI-8226 leukemia
[57] = tested on: UO-31 renal
[58] = tested on: SK-MEL-2 melanoma
[59] = tested on: ACHN renal
[60] = tested on: HL-60(TB) leukemia
[61] = tested on: M14 melanoma
[62] = tested on: T-47D breast
[63] = tested on: SNB-19 CNS
[64] = tested on: NCI-H460 lung
[65] = tested on: DMS 114 small cell lung
[66] = tested on: CAKI-1 renal

SMILES: Cc1cc(NC(=O)NC(=O)c2ccccc2NC(=O)C(C)N)ccc1Oc1ncc(Br)cn1 (stereo unspecified)
- TGI [1]: 17.4 µM
- TGI [2]: 4.91 µM
- TGI [3]: > 38.5 µM
- TGI [4]: 58.2 µM
- TGI [5]: > 100 µM
- TGI [6]: 25.6 µM
- TGI [7]: 27.2 µM
- TGI [8]: 0.459 µM
- TGI [9]: 1.49 µM
- TGI [10]: 35.8 µM
- TGI [11]: 9.49 µM
- TGI [12]: 39.1 µM
- TGI [13]: 45.3 µM
- TGI [14]: 0.0431 µM
- TGI [15]: 19.2 µM
- TGI [16]: 92.6 µM
- TGI [17]: > 100 µM
- TGI [18]: 0.111 µM
- TGI [19]: 2.88 µM
- TGI [20]: 2.47 µM
- TGI [21]: 29.7 µM
- TGI [22]: 39.4 µM
- TGI [23]: 33.4 µM
- TGI [24]: 4.3 µM
- TGI [25]: 15.9 µM
- TGI [26]: > 100 µM
- TGI [27]: 0.148 µM
- TGI [28]: 52.2 µM
- TGI [29]: 33.5 µM
- TGI [30]: 25.1 µM
- TGI [31]: 15.5 µM
- TGI [32]: 24.4 µM
- TGI [33]: 44.4 µM
- TGI [34]: 15.3 µM
- TGI [35]: 19.5 µM
- TGI [36]: > 32.7 µM
- TGI [37]: 0.529 µM
- TGI [38]: 0.334 µM
- TGI [39]: 32.6 µM
- TGI [40]: 19.4 µM
- TGI [41]: 48.9 µM
- TGI [42]: 3.51 µM
- TGI [43]: 0.776 µM
- TGI [44]: 36.7 µM
- TGI [45]: 0.257 µM
- TGI [46]: 56.3 µM
- TGI [47]: 4.38 µM
- TGI [48]: 15.2 µM
- TGI [49]: 37.4 µM
- TGI [50]: 0.852 µM
- TGI [51]: 8.56 µM
- TGI [52]: 15.9 µM
- TGI [53]: 9.56 µM
- TGI [54]: 11.8 µM
- TGI [55]: 28.6 µM
- TGI [56]: 61.5 µM
- TGI [57]: 26.9 µM
- TGI [58]: 6.58 µM
- TGI [59]: 27.4 µM
- TGI [60]: 0.558 µM
- TGI [61]: 3.71 µM
- TGI [62]: 29.6 µM
- TGI [63]: 56.3 µM
- TGI [64]: 19.2 µM
- TGI [65]: 6.17 µM

SMILES: O=C(NCCCCCCCCCCCCNC(=O)Nc1cccc2ccccc12)Nc1cccc2ccccc12
- TGI [1]: 33.4 µM
- TGI [2]: 27.7 µM
- TGI [3]: 50.5 µM
- TGI [4]: 35.1 µM
- TGI [6]: 25.9 µM
- TGI [7]: 34.3 µM
- TGI [9]: 52.4 µM
- TGI [10]: 32.9 µM
- TGI [11]: 46.2 µM
- TGI [12]: 36.8 µM
- TGI [13]: 31.7 µM
- TGI [14]: 27 µM
- TGI [15]: 70.9 µM
- TGI [18]: 30.3 µM
- TGI [20]: 32.7 µM
- TGI [21]: 36.3 µM
- TGI [22]: 31.5 µM
- TGI [23]: 34.4 µM
- TGI [24]: 20.1 µM
- TGI [27]: 31.2 µM
- TGI [28]: 42.2 µM
- TGI [29]: 34.2 µM
- TGI [30]: 79.6 µM
- TGI [31]: 26.7 µM
- TGI [32]: 31.8 µM
- TGI [33]: 33.1 µM
- TGI [34]: 53.6 µM
- TGI [35]: 31.6 µM
- TGI [37]: 31.7 µM
- TGI [38]: 28.9 µM
- TGI [66]: 31.7 µM
- TGI [40]: 33.6 µM
- TGI [41]: 31.4 µM
- TGI [42]: 40.8 µM
- TGI [43]: 30.6 µM
- TGI [44]: 24.1 µM
- TGI [45]: 33.5 µM
- TGI [46]: 31.3 µM
- TGI [47]: 27.8 µM
- TGI [48]: 29.7 µM
- TGI [49]: 36.3 µM
- TGI [50]: 44.1 µM
- TGI [51]: 31.5 µM
- TGI [52]: 60.6 µM
- TGI [53]: 32.2 µM
- TGI [54]: 35.9 µM
- TGI [55]: 43.3 µM
- TGI [56]: 37.1 µM
- TGI [57]: 33.9 µM
- TGI [58]: 35.7 µM
- TGI [59]: 27.1 µM
- TGI [60]: 37.3 µM
- TGI [61]: 43.6 µM
- TGI [62]: 36.7 µM
- TGI [63]: 30.1 µM
- TGI [64]: 29.4 µM
